Measured values taken from PMC5893540, “Mechanistic insights into allosteric regulation of the A2A adenosine G protein-coupled receptor by physiological cations” (Nature Communications, 2018).
“And” between values parts separate entries of the source, which are not always exact repeats. Equal values may be shown once. “Also recorded” adds a separate entry of the source. Read-outs that look alike come from different tables or passages of the source.

Legend:
A2AR + Gs = target: T1, A2AR + Gs (Homo sapiens, UniProt P29274, V229C); assay: [3H]NECA binding in A2AR/Gs-infected Sf9 membranes; conditions: for effect of cation on specific [3H]NECA binding / EC50: 10 nM [3H]NECA; for effect of cation on specific [3H]NECA binding: increasing cation concentration; for effect on [3H]NECA high affinity saturation: 2.5 mM cation; for EC50: read-out: half-maximal cation concentration for enhancement of [3H]NECA binding, 100 mM NaCl
T1 construct: Flag (N); TEV site (N); His10 (H10) (C); expressed in transfected cells; host or cells: Sf9 insect cells, baculovirus co-infection (A2AR, Gαs, Gβγ); membranes
T1 sequence (P29274 1-316 V229C limits assumed): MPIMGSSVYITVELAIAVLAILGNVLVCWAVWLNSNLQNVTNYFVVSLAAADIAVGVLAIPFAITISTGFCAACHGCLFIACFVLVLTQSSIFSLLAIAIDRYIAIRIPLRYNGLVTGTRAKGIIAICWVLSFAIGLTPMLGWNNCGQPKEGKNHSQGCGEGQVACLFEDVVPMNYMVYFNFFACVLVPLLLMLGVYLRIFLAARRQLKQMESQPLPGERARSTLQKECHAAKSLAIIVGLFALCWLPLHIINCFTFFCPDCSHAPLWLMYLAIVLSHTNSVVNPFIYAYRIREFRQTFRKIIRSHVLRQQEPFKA
T1 sequence (P63092 whole entry partner): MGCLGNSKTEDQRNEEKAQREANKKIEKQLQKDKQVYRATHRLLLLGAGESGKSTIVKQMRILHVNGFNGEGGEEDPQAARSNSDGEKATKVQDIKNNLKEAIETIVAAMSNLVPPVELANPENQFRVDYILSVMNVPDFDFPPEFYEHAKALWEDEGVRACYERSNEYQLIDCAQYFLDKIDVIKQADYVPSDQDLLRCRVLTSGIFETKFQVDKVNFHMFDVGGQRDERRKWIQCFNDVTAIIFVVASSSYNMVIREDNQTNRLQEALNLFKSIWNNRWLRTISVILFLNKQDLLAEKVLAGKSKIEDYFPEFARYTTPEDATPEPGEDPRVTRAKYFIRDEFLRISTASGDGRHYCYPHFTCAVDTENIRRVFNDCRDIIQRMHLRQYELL
T1 sequence (P62873 whole entry partner): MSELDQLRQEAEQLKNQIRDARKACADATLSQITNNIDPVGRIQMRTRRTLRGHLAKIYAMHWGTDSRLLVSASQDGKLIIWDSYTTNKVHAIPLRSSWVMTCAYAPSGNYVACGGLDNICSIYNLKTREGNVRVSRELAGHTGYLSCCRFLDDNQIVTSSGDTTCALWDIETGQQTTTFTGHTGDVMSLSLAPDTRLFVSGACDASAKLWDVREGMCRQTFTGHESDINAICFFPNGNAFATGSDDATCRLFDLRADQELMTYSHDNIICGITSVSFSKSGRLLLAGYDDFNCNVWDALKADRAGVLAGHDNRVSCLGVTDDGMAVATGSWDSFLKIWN
T1 sequence (P59768 2-68 partner limits assumed): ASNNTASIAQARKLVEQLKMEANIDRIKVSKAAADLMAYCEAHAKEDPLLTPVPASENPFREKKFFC
Source text: The above ^19F NMR observations are further recapitulated in radioligand binding assays in Sf9 cell membranes in which the identical A2AR construct was co-expressed with the heterotrimeric stimulatory G protein, Gαsβγ.
Error bars for radioligand binding assays are defined based on three replicates

BTFMA-labeled A2AR-V229C = target: T2, BTFMA-labeled A2AR-V229C (Homo sapiens, UniProt P29274, V229C); assay: 19F NMR of functional state populations (S1-2, S3, S3'); conditions: for effect on active state population: 20 mM cation, saturating NECA and Gαs peptide, 100 mM NaCl; for effect on populations of functional states: apo A2AR in MNG-3 micelles, divalent cations 100–500 mM, KCl with 10 or 100 mM NaCl
T2 construct: alpha-factor secretion leader (Fα-Factor) (N); Flag (N); TEV site (N); His10 (H10) (C); made in house; host or cells: Pichia pastoris SMD 1163
T2 sequence (P29274 1-316 V229C limits assumed): as the sequence (P29274 1-316 V229C limits assumed) above
Method: Here, spectra are deconvolved into three resonances, referred to as S1−2, S3, and S3′, in keeping with previously published work[1].
NMR samples typically consisted of 250 μL volumes of 25–200 μM A2AR-V229C in 50 mM HEPES buffer (pH 7.4) and 100 mM NaCl, doped with 10% D2O. The receptor was stabilized in 0.1% MNG-3 and 0.02% CHS. All ^19F NMR experiments were performed on a 600 MHz Varian Inova spectrometer using a cryogenic triple resonance probe, with the high frequency channel tunable to either ^1H or ^19F. […] Most spectra were acquired with 10,000–50,000 scans depending on sample concentration. Processing typically involved zero filling, and exponential apodization equivalent to 20 Hz line broadening.

apo A2AR-V229C [1] = target: T3, apo A2AR-V229C (Homo sapiens, UniProt P29274, V229C); assay: 25Mg NMR line width binding isotherm and Ca2+ competition; design: alpha-factor secretion leader (Fα-Factor) (N); Flag (N); TEV site (N); His10 (H10) (C); made in house; host or cells: Pichia pastoris SMD 1163
T3 sequence (P29274 1-316 V229C limits assumed): as above
Method: The experiment was performed on an Agilent DD2-600 NMR, equipped with a 10 mm low gamma direct detect probe and low frequency pre-amp. The experimental parameters used were as follows: 20 °C, a Larmor frequency of 36.72 MHz, a spectral width of 2.5 kHz, 1.1 s acquisition time, 0.5 s relaxation time, a 30 µs 90° excitation pulse, and between 128 and 2048 scans depending on the signal-to-noise ratio. For the Kd determination of Mg^2+ the following protocol was used: A 1 M MgCl2 solution with 10 mM DyCl3 in D2O was used as a reference and was placed in a 5-mm OD tube. A sample of 1.5 mL of the protein solution was placed in a 10-mm OD NMR tube. The reference tube was thoroughly cleaned and inserted into the 10-mm tube and centered with a plastic cap. Titration volumes of 3–37 µL of 4.64 M MgCl2 were added directly to the 10-mm tube which was then gently mixed using a vortex shaker. The sample was allowed to equilibrate in the magnet for 10 min at the set temperature and the sample was then locked, tuned, gradient shimmed and acquired. […] The sample was allowed to equilibrate at the set temperature in the magnet for 10 min and then locked, tuned, gradient shimmed and acquired. The Kd and Ki values were determined, using GraphPad Prism 6 software, by fitting the data to the formula, y = A × x/(Kd + x), where x represents the cation concentration.

apo A2AR-V229C [2] = target: T3, apo A2AR-V229C; assay: 23Na NMR binding isotherm (line width / chemical shift)
Method: Relaxation dispersions associated with ^23Na CPMG experiments, shown in Fig. 2e, provide an additional measure of cation binding and exchange dynamics.
The experiments were performed on a 600 MHz Varian VNMRS spectrometer using a room temperature XH broadband probe (X-nucleus on the inner coil). […] An external ^23Na reference was prepared by mixing 50 mM NaCl and 50 mM TmCl3 in equal volumes prior to loading into the coaxial insert. […] Information regarding binding can be reliably obtained by observing the shift of the free peak and line broadening associated with fast exchange between “free” and “bound” states.

| effect of cation on specific [3H]NECA binding (A2AR + Gs) | SMILES | effect on active state population (BTFMA-labeled A2AR-V229C) | effect on populations of functional states (BTFMA-labeled A2AR-V229C) | further results |
| --- | --- | --- | --- | --- |
| significantly enhance | [Ca+2].[Cl-].[Cl-] [Ca^2+, CaCl2] | detectable increase in the proportion of active states | shift the equilibrium of apo A2AR toward the active states | effect on [3H]NECA high affinity saturation (A2AR + Gs): enhance maximal specific [^3H]NECA binding and affinity (Kd); EC50 (A2AR + Gs): 0.35 to 0.4 mM; EC50 (A2AR + Gs; listed as Ca2+): 0.35 mM; Ki (apo A2AR-V229C [1]; 50 mM 25Mg2+, increasing CaCl2, 50 µM apo-A2AR-V229C, read-out: Ki of Ca2+ displacement of Mg2+): 98 ± 41 mM |
| no positive allosteric effects | [Fe+2] [Fe^2+] | did not |  |  |
|  | NC(N)=NC(=O)c1nc(Cl)c(N2CCCCCC2)nc1N [HMA, 5-(N,N-hexamethylene)amiloride, reference compound] |  |  | competition with sodium in 23Na NMR binding isotherm (apo A2AR-V229C [2]; 100 mM NaCl, stoichiometric equivalents of HMA): compete with sodium |
|  | [Cl-].[K+] [KCl] |  | no significant change |  |
| significantly enhance | [Cl-].[Cl-].[Mg+2] [Mg^2+, MgCl2] | detectable increase in the proportion of active states; also recorded: obvious increase in the active S3′ state population | shift the equilibrium of apo A2AR toward the active states | effect on [3H]NECA high affinity saturation (A2AR + Gs): enhance maximal specific [^3H]NECA binding and affinity (Kd); EC50 (A2AR + Gs): 0.35 to 0.4 mM; EC50 (A2AR + Gs; listed as Mg2+): 0.35 mM; Kd (apo A2AR-V229C [1]; 50 µM apo-A2AR-V229C, 100 mM Na+, N=1, fitting error, read-out: dissociation constant Kd of MgCl2): 60 ± 15 mM |
|  | [Cl-].[Na+] [sodium, NaCl] |  | shifts the equilibrium toward the inactive ensemble | Kd (apo A2AR-V229C [2]; read-out: dissociation constant Kd of sodium, apo A2AR-V229C 50 μM, line width-based isotherm, 10–1000 mM NaCl): 60 mM and ~60 mM |

| SMILES | effect of cation on specific [3H]NECA binding (A2AR + Gs) | effect on active state population (BTFMA-labeled A2AR-V229C) | effect on populations of functional states (BTFMA-labeled A2AR-V229C) | further results |
| --- | --- | --- | --- | --- |
| [Cl-].[Cl-].[Zn+2] [Zn^2+, ZnCl2] | reduce high affinity binding; also recorded: reduced binding; also recorded: no positive allosteric effects |  |  |  |
